What was measured:
β-catenin = molecular target: T1, β-catenin (Homo sapiens, UniProt P35222); assay: FP assay, binding of peptides with β-catenin (Kd); details: for decrease in binding affinity relative to 2: Ala substitution; for Kd: fluorescence polarization, 50 nM FITC labeled peptide, 1×PBS
T1 sequence (P35222 1-781): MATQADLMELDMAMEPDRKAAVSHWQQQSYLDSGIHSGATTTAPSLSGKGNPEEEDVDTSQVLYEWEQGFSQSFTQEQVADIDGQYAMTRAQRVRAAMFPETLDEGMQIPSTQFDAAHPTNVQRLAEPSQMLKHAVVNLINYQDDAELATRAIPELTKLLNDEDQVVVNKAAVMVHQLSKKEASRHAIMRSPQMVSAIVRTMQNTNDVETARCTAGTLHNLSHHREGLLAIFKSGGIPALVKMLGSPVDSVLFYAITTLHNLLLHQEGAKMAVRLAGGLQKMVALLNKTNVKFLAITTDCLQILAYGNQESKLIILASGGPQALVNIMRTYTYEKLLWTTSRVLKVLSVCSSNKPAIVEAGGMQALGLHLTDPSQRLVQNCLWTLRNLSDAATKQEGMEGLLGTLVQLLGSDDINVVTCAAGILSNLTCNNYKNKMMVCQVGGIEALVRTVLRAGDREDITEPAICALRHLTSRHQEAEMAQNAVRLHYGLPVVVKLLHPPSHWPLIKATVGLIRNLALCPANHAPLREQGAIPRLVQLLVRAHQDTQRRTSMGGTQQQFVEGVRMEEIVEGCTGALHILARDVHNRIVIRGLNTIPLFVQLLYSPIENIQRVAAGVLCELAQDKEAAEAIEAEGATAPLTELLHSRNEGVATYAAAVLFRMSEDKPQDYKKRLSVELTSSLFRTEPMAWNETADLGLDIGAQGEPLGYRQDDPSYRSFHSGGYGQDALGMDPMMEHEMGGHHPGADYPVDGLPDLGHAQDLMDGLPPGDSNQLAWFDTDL

β-catenin/BCL9 PPI = molecular target: T2, β-catenin/BCL9 PPI (Homo sapiens, UniProt P35222); assay: AlphaScreen competitive inhibition assay of β-catenin/BCL9 PPI; type: binding; details: for IC50 / Ki: AlphaScreen, mean ± SD; for IC50: 5 nM biotinylated BCL9, 40 nM His6-tagged FL-β-catenin; for Ki: Ki derived from IC50 by method of Nikolovska-Coleska et al.
T2 construct: 40 nM His6-tagged FL-β-catenin
T2 sequence (P35222 1-781): T1 sequence (P35222 1-781)
Procedure: For the competitive inhibition assays of β-catenin/BCL9 PPI, the negative control (equivalent to 0% inhibition) refers to 5.0 nM biotinylated BCL9, 40 nM His6-tagged FL-β-catenin, and 10 μg/mL of donor and acceptor beads in a final volume of 25 μL of assay buffer, but no tested inhibitor present. The positive control (equivalent to 100% inhibition) refers to 5.0 nM biotinylated BCL9 and 10 μg/mL of donor and acceptor beads in a final volume of 25 μL of assay buffer. For the β-catenin/BCL9 assay, 5 nM biotinylated BCL9 and 40 nM His6-tagged FL-β-catenin were incubated in assay buffer at 4° C. for 30 min. Different concentrations of the tested inhibitor were added and incubated in 20 μL of assay buffer at 4° C. for another 1 h. All of the above assay plates were covered and gently mixed on an orbital shaker. The donor and acceptor beads were then added to the plates to a final concentration of 10 μg/mL in 25 μL of assay buffer. The mixture was incubated for 1 h at 4° C. before detection. The IC50 value was determined by nonlinear least-squares analysis of GraphPad Prism 5.0. The Ki values were derived from the IC50 values using a method reported by Nikolovska-Coleska et al. The assays were conducted under the conditions reported by Nikolovska-Coleska et al.'s equation for determining the Ki values. All of the experiments were performed in triplicate. The results were expressed as mean±standard deviation.

SW480 cell = type: cell-based; details: for IC50: 72 h
Procedure: Colorectal cancer cell lines SW480 were seeded in 96-well plates at 5×10^3 cells/well, maintained overnight at 37° C., and incubated in the presence of inhibitors at various concentrations. Cell viability was monitored after 72 h using a freshly prepared mixture of one-part phenazine methosulfate (PMS, Sigma) solution (0.92 mg/mL) and 19 parts MTs agent (3-(4,5-dimethylthiazol-2-yl)-5-(3-carboxymethoxyphenyl)-2-(4-sulfophenyl)-2H-tetrazolium, inner salt, Promega) solution (2 mg/mL). Cells were incubated in 10 μL of this solution at 37° C. for 3 h, and A490 was measured. The effect of each compound is expressed as the concentration required to reduce A490 by 50% (IC50) relative to vehicle-treated cells. Experiments were performed in triplicate and repeated for three times.

A549 cell = type: cell-based; details: 72 h
[1] = test system: Wnt/β-catenin signaling transactivation (TOPFlash); assay: Wnt-responsive TOPFlash luciferase reporter assay in SW480 cells; details: read-out: TOPFlash luciferase IC50 (estimated), 24 h
Excerpt: Wnt-specific TOPFlash/FOPFlash luciferase reporter assays were used to evaluate the effects of these compounds on β-catenin-dependent transcription. For the TOPFlash reporter construct, the firefly luciferase reporter gene was placed downstream of three wild-type Tcf binding sites. For the FOPFlash reporter construct, the firefly luciferase reporter gene was place downstream of three mutant Tcf binding sites. The high expression of firefly luciferase in TOPFlash assays was controlled by tandem Tcf binding sites. The renilla luciferase reporter construct (pCMV-RL) was used as the internal control to normalize luciferase reporter signals and eliminate systematic errors such as cell viability, transfection effect, etc.
SW480 cells were co-transfected with 60 ng of the TOPFlash or FOPFlash firefly luciferase reporter gene and 40 ng of renilla luciferase pCMV-RL normalization reporter. Cells were cultured in DMEM and 10% FBS at 37° C. for 24 h, and different concentrations of inhibitors or DMSO were added. After 24 h, the luciferase reporter activity was measured using the Dual-Glo system (E2940, Promega). Normalized luciferase activity in response to the treatment with inhibitors was compared with that obtained from the cells treated with DMSO. Experiments were performed in triplicate.

CCC(C)[C@@H](CN(CC(=O)N[C@@H](CC(C)C)CN(CC(=O)N[C@@H](CC(C)C)CN(CC(N)=O)S(=O)(=O)Cc1ccccc1)S(=O)(=O)CC(C)C)S(C)(=O)=O)NC(=O)CN(C[C@H](CCCNC(=N)N)NC(=O)CN(C[C@H](CC(C)C)NC(=O)CN(C[C@@H](NC(=O)CN(C[C@H](CC(C)C)NC(=O)CN(C[C@H](CCCNC(=N)N)NC(=O)CN(C[C@H](CCCNC(=N)N)NC(=O)CN(C[C@H](CCC(=O)O)NC(C)=O)S(C)(=O)=O)S(C)(=O)=O)S(C)(=O)=O)S(=O)(=O)CCN)C(C)O)S(=O)(=O)CC(C)C)S(=O)(=O)CCN)S(=O)(=O)CC(C)C (some centres unmarked) [Peptide 3]
decrease in binding affinity relative to 2 (β-catenin): about 1.5 fold
Kd (β-catenin): 0.86 µM
IC50 (β-catenin/BCL9 PPI): 1.04 ± 0.21 µM
Ki (β-catenin/BCL9 PPI): 0.92 ± 0.17 µM
IC50 (SW480 cell): 12.8 ± 2.9 µM
IC50 (A549 cell): 43.7 ± 3.62 µM
IC50 [1]: 26.5 µM

CC(=O)N[C@@H](CCC(=O)O)CN(CC(=O)N[C@@H](CCCNC(=N)N)CN(CC(=O)N[C@@H](CCCNC(=N)N)CN(CC(=O)N[C@@H](CC(C)C)CN(CC(=O)N[C@H](CN(CC(=O)N[C@@H](CC(C)C)CN(CC(=O)N[C@@H](CCCNC(=N)N)CN(CC(=O)N[C@@H](C)CN(CC(=O)N[C@@H](CC(C)C)CN(CC(=O)N[C@@H](CC(C)C)CN(CC(N)=O)S(=O)(=O)Cc1ccccc1)S(=O)(=O)CC(C)C)S(C)(=O)=O)S(=O)(=O)CC(C)C)S(=O)(=O)CCN)S(=O)(=O)CC(C)C)C(C)O)S(=O)(=O)CCN)S(C)(=O)=O)S(C)(=O)=O)S(=O)(=O)CCN (some centres unmarked) [Peptide 6]
improvement of Kd compared to the peptide 1 (β-catenin): ~6 fold
Kd (β-catenin): 0.16 µM
improvement of IC50 compared to the peptide 1 (β-catenin/BCL9 PPI): ~3 fold
improvement of Ki compared to the peptide 1 (β-catenin/BCL9 PPI): ~3 fold
IC50 (β-catenin/BCL9 PPI): 0.54 µM
Ki (β-catenin/BCL9 PPI): 0.46 µM
IC50 (SW480 cell): 65.4 ± 7.06 µM
effect on SW480 cell proliferation, in words (SW480 cell; MTS): relatively weak activity
IC50 (A549 cell): 150 ± 19.2 µM

CCC(C)[C@@H](CN(CC(=O)N[C@@H](CC(C)C)CN(CC(=O)N[C@@H](C)CN(CC(N)=O)S(=O)(=O)Cc1ccccc1)S(=O)(=O)CC(C)C)S(C)(=O)=O)NC(=O)CN(C[C@H](CCCNC(=N)N)NC(=O)CN(C[C@H](C)NC(=O)CN(C[C@@H](NC(=O)CN(C[C@H](CC(C)C)NC(=O)CN(C[C@H](CCCNC(=N)N)NC(=O)CN(C[C@H](C)NC(=O)CN(C[C@H](CCC(=O)O)NC(C)=O)S(C)(=O)=O)S(C)(=O)=O)S(C)(=O)=O)S(=O)(=O)CCN)C(C)O)S(=O)(=O)CC(C)C)S(=O)(=O)CCN)S(=O)(=O)CC(C)C (some centres unmarked) [Peptide 12]
Kd (β-catenin): > 10 µM
ability to inhibit β-catenin/BCL9 PPI, in words (β-catenin/BCL9 PPI): completely losing their ability to inhibit β-catenin/BCL9 PPI
IC50 (β-catenin/BCL9 PPI): > 10 µM
Ki (β-catenin/BCL9 PPI): > 10 µM

CCC(C)[C@@H](CN(CC(=O)N[C@@H](CC(C)C)CN(CC(=O)N[C@@H](CC(C)C)CN(CC(N)=O)S(=O)(=O)Cc1ccccc1)S(=O)(=O)CC(C)C)S(=O)(=O)CC(C)C)NC(=O)CN(C[C@H](CCCNC(=N)N)NC(=O)CN(C[C@H](CC(C)C)NC(=O)CN(C[C@@H](NC(=O)CN(C[C@H](CC(C)C)NC(=O)CN(C[C@H](CCCNC(=N)N)NC(=O)CN(C[C@H](CCCNC(=N)N)NC(=O)CN(C[C@H](CCC(=O)O)NC(C)=O)S(=O)(=O)CCN)S(C)(=O)=O)S(C)(=O)=O)S(=O)(=O)CCN)C(C)O)S(=O)(=O)CC(C)C)S(=O)(=O)CCN)S(=O)(=O)CC(C)C (some centres unmarked) [Peptide 10]
binding activity, in words (β-catenin): decreased binding activity
Kd (β-catenin): 2.51 µM
IC50 (β-catenin/BCL9 PPI): 4.07 ± 0.59 µM
Ki (β-catenin/BCL9 PPI): 3.65 ± 0.51 µM

CCC(C)[C@@H](CN(CC(=O)N[C@@H](CC(C)C)CN(CC(=O)N[C@@H](CC(C)C)CN(CC(N)=O)S(=O)(=O)Cc1ccccc1)S(=O)(=O)CC(C)C)S(C)(=O)=O)NC(=O)CN(C[C@H](CCCNC(=N)N)NC(=O)CN(C[C@H](CC(C)C)NC(=O)CN(C[C@@H](NC(=O)CN(C[C@H](CC(C)C)NC(=O)CN(C[C@H](CCCNC(=N)N)NC(=O)CN(C[C@H](CCCNC(=N)N)NC(=O)CN(C[C@H](CCC(=O)O)NC(C)=O)S(=O)(=O)CCN)S(C)(=O)=O)S(C)(=O)=O)S(=O)(=O)CCN)C(C)O)S(=O)(=O)CC(C)C)S(=O)(=O)CCN)S(C)(=O)=O (some centres unmarked) [Peptide 8]
binding activity, in words (β-catenin): inferior binding activity
Kd (β-catenin): 3.89 µM
IC50 (β-catenin/BCL9 PPI): 8.01 ± 0.82 µM
Ki (β-catenin/BCL9 PPI): 7.2 ± 0.72 µM

CC(=O)N[C@@H](CCC(=O)O)CN(CC(=O)N[C@@H](CCCNC(=N)N)CN(CC(=O)N[C@@H](CCCNC(=N)N)CN(CC(=O)N[C@@H](CC(C)C)CN(CC(=O)N[C@H](CN(CC(=O)N[C@@H](CC(C)C)CN(CC(=O)N[C@@H](CCCNC(=N)N)CN(CC(=O)N[C@@H](CCCNC(=N)N)CN(CC(=O)N[C@@H](CC(C)C)CN(CC(=O)N[C@@H](CC(C)C)CN(CC(N)=O)S(=O)(=O)Cc1ccccc1)S(=O)(=O)CC(C)C)S(C)(=O)=O)S(=O)(=O)CC(C)C)S(=O)(=O)CCN)S(=O)(=O)CC(C)C)C(C)O)S(=O)(=O)CCN)S(C)(=O)=O)S(C)(=O)=O)S(=O)(=O)CCN (some centres unmarked) [Peptide 9]
binding activity, in words (β-catenin): inferior binding activity
Kd (β-catenin): 5.14 µM
IC50 (β-catenin/BCL9 PPI): 12.9 ± 2.15 µM
Ki (β-catenin/BCL9 PPI): 11.6 ± 1.92 µM

CCC(C)[C@@H](CN(CC(=O)N[C@@H](C)CN(CC(=O)N[C@@H](CC(C)C)CN(CC(N)=O)S(=O)(=O)Cc1ccccc1)S(=O)(=O)CC(C)C)S(C)(=O)=O)NC(=O)CN(C[C@H](CCCNC(=N)N)NC(=O)CN(C[C@H](CC(C)C)NC(=O)CN(C[C@@H](NC(=O)CN(C[C@H](CC(C)C)NC(=O)CN(C[C@H](CCCNC(=N)N)NC(=O)CN(C[C@H](CCCNC(=N)N)NC(=O)CN(C[C@H](CCC(=O)O)NC(C)=O)S(=O)(=O)CCN)S(C)(=O)=O)S(C)(=O)=O)S(=O)(=O)CCN)C(C)O)S(=O)(=O)CC(C)C)S(=O)(=O)CCN)S(=O)(=O)CC(C)C (some centres unmarked) [Peptide 11]
binding activity, in words (β-catenin): inferior binding activity
Kd (β-catenin): 8.26 µM
IC50 (β-catenin/BCL9 PPI): 17.4 ± 3.35 µM
Ki (β-catenin/BCL9 PPI): 15.7 ± 3 µM

CCC(C)[C@@H](CN(CC(=O)N[C@@H](CC(C)C)CN(CC(=O)N[C@@H](CC(C)C)CN(CC(N)=O)S(=O)(=O)Cc1ccccc1)S(=O)(=O)CC(C)C)S(C)(=O)=O)NC(=O)CN(C[C@H](CCCNC(=N)N)NC(=O)CN(C[C@H](C)NC(=O)CN(C[C@@H](NC(=O)CN(C[C@H](CC(C)C)NC(=O)CN(C[C@H](CCCNC(=N)N)NC(=O)CN(C[C@H](CCCNC(=N)N)NC(=O)CN(C[C@H](CCC(=O)O)NC(C)=O)S(=O)(=O)CCN)S(C)(=O)=O)S(C)(=O)=O)S(=O)(=O)CCN)C(C)O)S(=O)(=O)CC(C)C)S(=O)(=O)CCN)S(=O)(=O)CC(C)C (some centres unmarked) [Peptide 5]
Kd (β-catenin): 1.97 µM
IC50 (β-catenin/BCL9 PPI): 2.71 µM
Ki (β-catenin/BCL9 PPI): 2.43 µM
IC50 (SW480 cell): 132 ± 18.9 µM
IC50 (A549 cell): 230 ± 27.5 µM

CCC(C)[C@@H](CN(CC(=O)N[C@@H](CC(C)C)CN(CC(=O)N[C@@H](C)CN(CC(N)=O)S(=O)(=O)Cc1ccccc1)S(=O)(=O)CC(C)C)S(C)(=O)=O)NC(=O)CN(C[C@H](CCCNC(=N)N)NC(=O)CN(C[C@H](CC(C)C)NC(=O)CN(C[C@@H](NC(=O)CN(C[C@H](CC(C)C)NC(=O)CN(C[C@H](CCCNC(=N)N)NC(=O)CN(C[C@H](CCCNC(=N)N)NC(=O)CN(C[C@H](CCC(=O)O)NC(C)=O)S(=O)(=O)CCN)S(C)(=O)=O)S(C)(=O)=O)S(=O)(=O)CCN)C(C)O)S(=O)(=O)CC(C)C)S(=O)(=O)CCN)S(=O)(=O)CC(C)C (some centres unmarked) [Peptide 7]
decrease in binding affinity relative to 2 (β-catenin): about 1.5 fold
Kd (β-catenin): 0.7 µM
IC50 (β-catenin/BCL9 PPI): 1 ± 0.1 µM
Ki (β-catenin/BCL9 PPI): 0.89 ± 0.08 µM
IC50 (SW480 cell): 46.6 ± 5.57 µM
IC50 (A549 cell): 120 ± 13.6 µM

Source: US12415832B2, “B-catenin/B-cell Lymphoma 9 protein-protein interaction inhibiting peptidomimetics” (University of South Florida, priority 2019, dated 2025)
